# Results reported in patent US8361968B2 (Takeda Pharmaceutical Company Limited, priority 2002, dated 2013).
# Square brackets hold non-standard residues; d marks the D form. Peptide text beside a SMILES is read from it. * marks the point of attachment. 2Nal = N[C@@H](Cc1ccc2ccccc2c1)C(=O)O; Arg(Me) = CNC(=N)NCCC[C@H](N)C(=O)O; Fmoc = O=C(OCC1c2ccccc2-c2ccccc21)*; 3Pal = N[C@@H](Cc1cccnc1)C(=O)O; azaGly = NNC(=O)O
# Biological target: hOT7T175 (Homo sapiens, UniProt Q969F8, L364H)
# Assay: hOT7T175 receptor binding activity: binding inhibition of Cy-5-labeled metastin (40-54) on hOT7T175-expressed CHO cells
# Parameters: expressed in transfected cells; host or cells: CHO cells
# Protocol: Assay for hOT7T175 Receptor Binding Activity
# h0T7T175-Expressed CHO cells were cultured in MEM-cc medium (nucleic acid-free) containing 10% dialyzed serum. The medium was removed and the adherent cells were washed with PBS. Then, PBS containing 5 mM EDTA was added and the cells were scraped from a flask with a cell scraper. […] To each well of a 96-Well Black Clear Bottom Plate (Applied Biosystems, Inc.), 10 μL of assay buffer containing 1% dimethylsulfoxide was added to examine total binding, 10 μL of 10 μM non-labeled peptide (having the same amino acid sequence as that of the labeled one) solution diluted with assay buffer to examine non-specific binding, and 10 μL of a test compound diluted with assay buffer to examine the binding inhibition activity of the test compound, respectively. Furthermore, 90 μL each of the cell suspension was dispensed to each well. […] The specific binding is a value obtained by subtracting the non-specific binding from the total binding.
# Chain of hOT7T175 (Q969F8 whole entry L364H): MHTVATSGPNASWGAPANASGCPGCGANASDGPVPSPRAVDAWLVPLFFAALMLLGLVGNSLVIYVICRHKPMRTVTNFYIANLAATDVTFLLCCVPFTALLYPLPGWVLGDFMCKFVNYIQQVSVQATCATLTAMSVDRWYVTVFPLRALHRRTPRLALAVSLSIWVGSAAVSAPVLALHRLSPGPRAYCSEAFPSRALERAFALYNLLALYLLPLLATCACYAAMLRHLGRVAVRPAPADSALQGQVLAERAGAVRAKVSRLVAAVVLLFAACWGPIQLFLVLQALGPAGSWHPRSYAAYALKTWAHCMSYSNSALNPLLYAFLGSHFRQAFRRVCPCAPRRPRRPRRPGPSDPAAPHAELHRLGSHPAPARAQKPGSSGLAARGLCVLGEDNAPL
row,Compound,IC50
1,CC(C)C[C@H](NC(=O)CNC(=O)[C@H](Cc1ccccc1)NC(=O)[C@H](CO)NC(=O)[C@H](CC(N)=O)NC(=O)[C@H](CC(C)C)NC(=O)[C@H](CC(N)=O)NC(=O)[C@@H](N)Cc1ccc(O)cc1)C(=O)N[C@@H](CCCNC(=N)N)C(=O)N[C@@H](Cc1ccccc1)C(N)=O [Compound No. 68] (H-YNLNSFGLRF-NH2),7.7 nM
2,"CNC(=N)NCCC[C@H](NC(=O)[C@H](CC(C)C)NC(=O)NNC(=O)[C@H](Cc1ccccc1)NC(=O)[C@H](CO)NC(=O)[C@H](CC(N)=O)NC(=O)[C@H](CCCNC(=N)N)NC(C)=O)C(=O)N[C@@H](Cc1ccccc1)C(N)=O [Compound No. 275, Acetyl-Arg-Asn-Ser-Phe-AzaGly-Leu-Arg(Me)-Phe-NH2] (Ac-RNSF[azaGly]L[Arg(Me)]F-NH2)",410 nM
3,"CC[C@H](C)[C@H](NC(=O)[C@H](N)Cc1ccc(O)cc1)C(=O)N[C@@H](CC(N)=O)C(=O)N[C@@H](CO)C(=O)N[C@@H](Cc1ccccc1)C(=O)NNC(=O)N[C@@H](CC(C)C)C(=O)N[C@@H](CCCNC(=N)NC)C(=O)N[C@@H](Cc1ccccc1)C(N)=O [Compound No. 240, D-Tyr-Ile-Asn-Ser-Phe-AzaGly-Leu-Arg(Me)-Phe-NH2] (H-[dY]INSF[azaGly]L[Arg(Me)]F-NH2)",17 nM
4,"CNC(=N)NCCC[C@H](NC(=O)[C@H](CC(C)C)NC(=O)CNC(=O)[C@H](Cc1ccccc1)NC(=O)[C@H](CO)NC(=O)[C@H](CC(N)=O)NC(=O)[C@H](Cc1c[nH]c2ccccc12)NC(=O)OCC1c2ccccc2-c2ccccc21)C(=O)N[C@@H](Cc1ccccc1)C(N)=O [Compound No. 145, Fmoc-Trp-Asn-Ser-Phe-Gly-Leu-Arg(Me)-Phe-NH2] (Fmoc-WNSFGL[Arg(Me)]F-NH2)",120 nM
5,"CNC(N)=NCCC[C@H](NC(=O)[C@H](CC(C)C)NC(=O)NNC(=O)[C@H](Cc1ccccc1)NC(=O)[C@H](CO)NC(=O)[C@H](CC(N)=O)NC(=O)[C@H](CO)NC(=O)[C@H](CC(N)=O)NC(=O)[C@H](N)Cc1ccc(O)cc1)C(=O)N[C@@H](Cc1ccccc1)C(N)=O [Compound No. 191, D-Tyr-Asn-Ser-Asn-Ser-Phe-AzaGly-Leu-Arg(Me)-Phe-NH2] (H-[dY]NSNSF[azaGly]L[Arg(Me)]F-NH2)",300 nM
6,"CNC(N)=NCCC[C@H](NC(=O)[C@H](CC(C)C)NC(=O)NNC(=O)[C@H](Cc1ccccc1)NC(=O)[C@H](CO)NC(=O)[C@H](CC(N)=O)NC(=O)[C@H](CO)NC(=O)[C@H](N)Cc1ccc(O)cc1)C(=O)N[C@@H](Cc1ccccc1)C(N)=O [Compound No. 239, D-Tyr-Ser-Asn-Ser-Phe-AzaGly-Leu-Arg(Me)-Phe-NH2] (H-[dY]SNSF[azaGly]L[Arg(Me)]F-NH2)",120 nM
7,CC(C)C[C@H](NC(=O)CNC(=O)[C@H](Cc1ccccc1)NC(=O)[C@H](CO)NC(=O)[C@H](CC(N)=O)NC(=O)[C@H](Cc1c[nH]c2ccccc12)NC(=O)[C@H](CC(=O)O)NC(=O)[C@@H](N)Cc1ccc(O)cc1)C(=O)N[C@@H](CCCNC(=N)N)C(=O)N[C@@H](Cc1ccccc1)C(N)=O [Compound No. 57] (H-YDWNSFGLRF-NH2),100 nM
8,CC(C)C[C@H](NC(=O)CNC(=O)[C@H](Cc1ccccc1)NC(=O)[C@H](CO)NC(=O)[C@H](CC(N)=O)NC(=O)[C@H](Cc1c[nH]c2ccccc12)NC(=O)[C@H](CC(N)=O)NC(=O)[C@@H](N)Cc1ccc(O)cc1)C(=O)N[C@@H](CCCNC(=N)N(C)C)C(=O)N[C@@H](Cc1ccccc1)C(N)=O [Compound No. 83],25 nM
9,CNC(=N)NCCC[C@H](NC(=O)[C@H](CC(C)C)NC(=O)CNC(=O)[C@H](Cc1ccccc1)NC(=O)[C@H](CO)NC(=O)[C@H](CC(N)=O)NC(=O)[C@H](CO)NC(=O)[C@H](N)Cc1ccc(O)cc1)C(=O)N[C@@H](Cc1ccccc1)C(N)=O [Compound No. 226] (H-[dY]SNSFGL[Arg(Me)]F-NH2),100 nM
10,CC(C)C[C@H](NC(=O)CNC(=O)[C@H](Cc1ccccc1)NC(=O)[C@H](CO)NC(=O)[C@H](CC(N)=O)NC(=O)[C@H](Cc1c[nH]c2ccccc12)NC(=O)[C@H](CC(N)=O)NC(=O)[C@H](C)N)C(=O)N[C@@H](CCCNC(=N)N)C(=O)N[C@@H](Cc1ccccc1)C(N)=O [Compound No. 72] (H-ANWNSFGLRF-NH2),540 nM
11,"CNC(=N)NCCC[C@H](NC(=O)[C@H](CC(C)C)NC(=O)CNC(=O)[C@H](Cc1ccccc1)NC(=O)[C@H](CO)NC(=O)[C@H](CC(N)=O)NC(=O)[C@@H](Cc1c[nH]c2ccccc12)NC(=O)[C@H](N)CC(N)=O)C(=O)N[C@@H](Cc1ccccc1)C(N)=O [Compound No. 225, D-Asn-D-Trp-Asn-Ser-Phe-Gly-Leu-Arg(Me)-Phe-NH2] (H-[dN][dW]NSFGL[Arg(Me)]F-NH2)",410 nM
12,"CNC(=N)NCCC[C@H](NC(=O)[C@H](CC(C)C)NC(=O)NNC(=O)[C@H](Cc1ccccc1)NC(=O)[C@H](CO)NC(=O)[C@H](CC(N)=O)NC(=O)[C@H](Cc1cccnc1)NC(=O)[C@H](CC(N)=O)NC(=O)[C@H](N)Cc1ccc(O)cc1)C(=O)N[C@@H](Cc1ccccc1)C(N)=O [Compound No. 251, D-Tyr-Asn-Pya(3)-Asn-Ser-Phe-AzaGly-Leu-Arg(Me)-Phe-NH2] (H-[dY]N[3Pal]NSF[azaGly]L[Arg(Me)]F-NH2)",87 nM
13,CC(C)C[C@H](NC(=O)CNC(=O)[C@H](Cc1ccccc1)NC(=O)[C@H](CO)NC(=O)[C@H](CC(N)=O)NC(=O)[C@H](CO)NC(=O)[C@H](CC(N)=O)NC(=O)[C@@H](N)Cc1ccc(O)cc1)C(=O)N[C@@H](CCCNC(=N)N)C(=O)N[C@@H](Cc1ccccc1)C(N)=O [Compound No. 69] (H-YNSNSFGLRF-NH2),83 nM
14,CC(C)C[C@H](NC(=O)CNC(=O)[C@H](Cc1ccccc1)NC(=O)[C@H](CO)NC(=O)[C@H](CC(N)=O)NC(=O)[C@H](C)NC(=O)[C@H](CC(N)=O)NC(=O)[C@@H](N)Cc1ccc(O)cc1)C(=O)N[C@@H](CCCNC(=N)N)C(=O)N[C@@H](Cc1ccccc1)C(N)=O [Compound No. 67] (H-YNANSFGLRF-NH2),27 nM
15,"CNC(N)=NCCC[C@H](NC(=O)[C@H](CC(C)C)NC(=O)NNC(=O)[C@H](Cc1ccccc1)NC(=O)[C@H](CO)NC(=O)[C@H](CC(N)=O)NC(=O)[C@H](Cc1ccc2ccccc2c1)NC(=O)[C@H](N)Cc1ccc(O)cc1)C(=O)N[C@@H](Cc1ccccc1)C(N)=O [Compound No. 255, D-Tyr-Nal(2)-Asn-Ser-Phe-AzaGly-Leu-Arg(Me)-Phe-NH2] (H-[dY][2Nal]NSF[azaGly]L[Arg(Me)]F-NH2)",33 nM
16,CC(C)C[C@H](NC(=O)CNC(=O)[C@H](Cc1ccccc1)NC(=O)[C@H](CO)NC(=O)[C@H](CC(N)=O)NC(=O)[C@H](Cc1c[nH]c2ccccc12)NC(=O)[C@H](CC(N)=O)NC(=O)[C@@H](N)Cc1ccc(O)cc1)C(=O)N[C@@H](CCCCN)C(=O)N[C@@H](Cc1ccccc1)C(N)=O [Compound No. 44] (H-YNWNSFGLKF-NH2),190 nM
